From patent publication US20230192700A1, “PYRAZOLOPYRAZINES ACTING ON CANCERS VIA INHIBITION OF CDK12” (Bayer Aktiengesellschaft, priority 2020, published 2023)

Key:
CDK2/CyclinE = molecular target: T1, CDK2/CyclinE (Homo sapiens, UniProt P24941); test: CDK2/CycE kinase assay (TR-FRET); assay type: biochemical; conditions: 2 mM ATP (high ATP); median; read-out: CDK2/CyclinE, 2 mM ATP (high ATP) IC50 - [mol/l] (median)
T1 construct: GST; purchased ProQinase GmbH (Freiburg, Germany); host or cells: insect cells (Sf9)
From the text: 2.4 CDK2/CycE Kinase Assay
CDK2/CycE-inhibitory activity of compounds of the present invention was quantified employing the CDK2/CycE TR-FRET assay as described in the following paragraphs.
Recombinant fusion proteins of GST and human CDK2 and of GST and human CycE, expressed in insect cells (Sf9) and purified by Glutathion-Sepharose affinity chromatography, were purchased from ProQinase GmbH (Freiburg, Germany). As substrate for the kinase reaction biotinylated peptide biotin-Ttds-YISPLKSPYKISEG (C-terminus in amid form) was used which can be purchased e.g. form the company JERINI peptide technologies (Berlin, Germany).
For the assay 50 nanoL of a 100 fold concentrated solution of the test compound in DMSO was pipetted into a black low volume 384 well microtiter plate or a black 1536 well microtiter plate (both Greiner Bio-One, Frickenhausen, Germany), 2 microL of a solution of CDK2/CycE in aqueous assay buffer [50 millimol/L Tris/HCl pH 8.0, 10 millimol/L MgCl2, 1.0 millimol/L dithiothreitol, 0.1 millimol/L sodium ortho-vanadate, 0.01% (v/v) Nonidet-P40 (Sigma)] were added and the mixture was incubated for 15 min at 22° C. to allow pre-binding of the test compounds to the enzyme before the start of the kinase reaction. Then the kinase reaction was started by the addition of 3 microL of a solution of adenosine-tri-phosphate (ATP, 3.33 millimol/L=>final conc. in the 5 microL assay volume is 2 millimol/L) and substrate (1.25 micromol/L=>final conc. in the 5 microL assay volume is 0.75 micromol/L) in assay buffer and the resulting mixture was incubated for a reaction time of 25 min at 22° C. The concentration of CDK2/CycE was adjusted depending of the activity of the enzyme lot and was chosen appropriate to have the assay in the linear range, typical concentrations were in the range of 10 ng/mL. The reaction was stopped by the addition of 3 microL of a solution of TR-FRET detection reagents (0.333 micromol/L streptavidine-XL665 [Cisbio Bioassays, Codolet, France] and 1.67 nanomol/L anti-RB(pSer807/pSer811)-antibody from BD Pharmingen [#558389] and 2 nanomol/L LANCE EU-W1024 labeled anti-mouse IgG antibody [Perkin-Elmer, product no. AD0077, as an alternative a Terbium-cryptate-labeled anti-mouse IgG antibody from Cisbio Bioassays can be used]) in an aqueous EDTA-solution (167 millimol/L EDTA, 0.2% (w/v) bovine serum albumin in 100 millimol/L HEPES pH 7.5).
The resulting mixture was incubated 1 h at 22° C. to allow the formation of complex between the phosphorylated biotinylated peptide and the detection reagents. Subsequently the amount of phosphorylated substrate was evaluated by measurement of the resonance energy transfer from the Eu-chelate to the streptavidine-XL. Therefore, the fluorescence emissions at 620 nm and 665 nm after excitation at 350 nm was measured in a TR-FRET reader, e.g. a Pherastar (BMG Labtechnologies, Offenburg, Germany) or a Viewlux (Perkin-Elmer). The ratio of the emissions at 665 nm and at […] was taken as the measure for the amount of phosphorylated substrate. The data were normalised (enzyme reaction without inhibitor=0% inhibition, all other assay components but no enzyme=100% inhibition).

CDK12 = molecular target: T2, CDK12 (Homo sapiens, UniProt Q9NYV4); test: CDK12 nuclear protein level: immunofluorescence/high content analysis in CAL-120 cells; assay type: cell-based; conditions: for DC50: CAL-120 cells, 24 h, nuclear CDK12 staining intensity, median, read-out: CDK12 degradation IF DC50 - [mol/l] (median); for (IC50 CDK12 high ATP) to (Degradation DC50 CDK12) ratio: ratio of IC50 CDK12 hATP (2 mM ATP) to DC50 CDK12 (IF, CAL-120)
T2 construct: endogenous in cells; host or cells: CAL-120 human breast cancer cells (DSMZ ACC 459)
Experimental: 6. CDK12 Nuclear Protein Level: Immunofluorescence/High Content Analysis
In the context of the present invention, the term “DC50 CDK12” refers to the DC50 values obtained according to the assay described in this section (6) herein below, i.e. the DC50 values for the degradation of CDK12.:
CAL-120 human breast cancer cells (DSMZ ACC 459) are seeded in 1536-well microtiter plates (800 cells per well) containing 50 nanoL of compounds in Dose-Response. Control wells received DMSO or Reference Example 1. Plates are then incubated for 24 h at 37° C. in an humidified incubator and fixed with 4% PFA for 10 min. Then immunofluorescence (IF) against CDK12 (CellSignalling CDK12 Antibody #11973, rabbit, 1:100 dilution) is performed using standard IF protocols. Cells are then stained with Hoechst 33342 (Life Technologies, H-1399, 0.1 microg/mL) and imaged on an automated confocal microscopy system (e.g. Perkin Elmer Opera Phenix). Nuclear and cytoplasmic intensity as well as the nuclear/cytoplasmic intensity ratio is determined by automated image analysis using custom generated scripts (MetaXpress). Data is then transferred to Genedata Screener software, normalized to DMSO and control and DC50 values (degrading concentration to achieve 50% reduction of nuclear CDK12 staining intensity relative to controls) are reported.

T2 sequence (Q9NYV4 whole entry): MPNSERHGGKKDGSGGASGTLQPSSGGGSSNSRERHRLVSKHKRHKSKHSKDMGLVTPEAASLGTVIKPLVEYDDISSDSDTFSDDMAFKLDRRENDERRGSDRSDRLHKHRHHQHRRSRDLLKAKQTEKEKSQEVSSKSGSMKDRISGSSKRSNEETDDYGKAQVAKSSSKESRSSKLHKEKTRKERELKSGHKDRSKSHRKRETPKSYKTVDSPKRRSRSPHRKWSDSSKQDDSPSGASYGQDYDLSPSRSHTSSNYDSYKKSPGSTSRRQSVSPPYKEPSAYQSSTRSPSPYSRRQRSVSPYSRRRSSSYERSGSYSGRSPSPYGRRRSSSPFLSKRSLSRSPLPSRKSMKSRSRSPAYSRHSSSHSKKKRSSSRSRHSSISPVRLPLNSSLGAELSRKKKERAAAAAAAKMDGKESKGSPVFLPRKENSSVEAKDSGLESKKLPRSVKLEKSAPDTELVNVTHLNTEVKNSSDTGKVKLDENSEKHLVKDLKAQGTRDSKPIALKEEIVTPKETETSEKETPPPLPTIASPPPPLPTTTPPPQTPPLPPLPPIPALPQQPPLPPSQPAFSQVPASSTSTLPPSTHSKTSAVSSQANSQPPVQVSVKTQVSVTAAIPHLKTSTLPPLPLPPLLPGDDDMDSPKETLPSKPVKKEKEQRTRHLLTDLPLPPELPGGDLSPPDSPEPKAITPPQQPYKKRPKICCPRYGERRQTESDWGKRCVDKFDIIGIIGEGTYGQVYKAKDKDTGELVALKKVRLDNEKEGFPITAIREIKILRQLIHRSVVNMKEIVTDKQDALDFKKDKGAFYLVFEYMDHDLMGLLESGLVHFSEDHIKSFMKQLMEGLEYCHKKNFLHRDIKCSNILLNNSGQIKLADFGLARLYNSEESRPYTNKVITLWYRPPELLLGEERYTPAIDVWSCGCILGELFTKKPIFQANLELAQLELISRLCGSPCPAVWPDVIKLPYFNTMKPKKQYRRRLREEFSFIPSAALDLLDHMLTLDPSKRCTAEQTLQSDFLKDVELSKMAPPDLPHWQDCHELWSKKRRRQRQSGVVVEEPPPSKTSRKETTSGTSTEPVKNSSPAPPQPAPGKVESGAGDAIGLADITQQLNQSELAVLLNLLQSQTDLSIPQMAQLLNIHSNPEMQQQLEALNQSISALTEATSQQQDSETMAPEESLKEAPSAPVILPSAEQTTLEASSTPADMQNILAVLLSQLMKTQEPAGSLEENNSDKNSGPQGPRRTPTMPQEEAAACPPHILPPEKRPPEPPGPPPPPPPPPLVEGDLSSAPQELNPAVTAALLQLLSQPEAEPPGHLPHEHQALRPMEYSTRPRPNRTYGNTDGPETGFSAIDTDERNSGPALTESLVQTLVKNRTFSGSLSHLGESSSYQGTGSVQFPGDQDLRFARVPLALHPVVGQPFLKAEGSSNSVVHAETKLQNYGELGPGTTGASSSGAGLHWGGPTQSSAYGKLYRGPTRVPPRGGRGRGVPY
T2 sequence (O75909 whole entry partner): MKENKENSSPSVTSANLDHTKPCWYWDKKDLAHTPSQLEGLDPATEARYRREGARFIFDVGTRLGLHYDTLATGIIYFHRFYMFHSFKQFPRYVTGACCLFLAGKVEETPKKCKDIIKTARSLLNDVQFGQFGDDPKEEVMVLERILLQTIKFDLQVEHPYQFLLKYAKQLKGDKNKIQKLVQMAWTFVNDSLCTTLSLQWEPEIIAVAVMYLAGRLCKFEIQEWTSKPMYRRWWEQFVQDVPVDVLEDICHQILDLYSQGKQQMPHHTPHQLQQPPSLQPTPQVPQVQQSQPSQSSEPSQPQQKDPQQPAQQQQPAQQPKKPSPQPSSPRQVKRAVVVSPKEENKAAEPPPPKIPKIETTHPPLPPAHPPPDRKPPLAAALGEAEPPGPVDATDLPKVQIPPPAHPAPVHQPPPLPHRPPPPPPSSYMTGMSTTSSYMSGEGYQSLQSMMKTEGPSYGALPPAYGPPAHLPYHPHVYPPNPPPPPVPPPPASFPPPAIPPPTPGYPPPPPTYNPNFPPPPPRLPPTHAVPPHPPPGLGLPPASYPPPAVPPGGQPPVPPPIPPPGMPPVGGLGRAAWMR

IC50 (CDK2/CyclinE) | DC50 (CDK12) | (IC50 CDK12 high ATP) to (Degradation DC50 CDK12) ratio (CDK12) | SMILES
> 20000 nM | 28.7 nM | >697 | Cc1c(Cl)ccc2[nH]c(CNc3nn(C4CCN(C)CC4)c4nc(C5CC5)cnc34)nc12 [Example 21, N-[(5-chloro-4-methyl-1H-benzimidazol-2-yl)methyl]-6-cyclopropyl-1-(1-methylpiperidin-4-yl)-1H-pyrazolo[3,4-b]pyrazin-3-amine]
> 20000 nM | 912 nM | >22 | CC(CCN(C)C)n1nc(NCc2nc3ccccc3[nH]2)c2ncc(C3CC3)nc21 (single isomer, unassigned) [Example 63, (+) or (−)-N-[(1H-benzimidazol-2-yl)methyl]-6-cyclopropyl-1-[4-(dimethylamino)butan-2-yl]-1H-pyrazolo[3,4-b]pyrazin-3-amine]
> 20000 nM | 6.09 nM | >3284 | COc1cccc2[nH]c(CNc3nn(C4CCN(C)CC4)c4nc(C5CC5)cnc34)nc12 [Example 2, 6-cyclopropyl-N-[(4-methoxy-1H-benzimidazol-2-yl)methyl]-1-(1-methylpiperidin-4-yl)-1H-pyrazolo[3,4-b]pyrazin-3-amine]
> 20000 nM | 676 nM | – | CC(CCN(C)C)n1nc(NCc2nc3ccccc3[nH]2)c2ncc(C3CC3)nc21 (racemic) [Example 62, (±)-N-[(1H-benzimidazol-2-yl)methyl]-6-cyclopropyl-1-[4-(dimethylamino)butan-2-yl]-1H-pyrazolo[3,4-b]pyrazin-3-amine]
> 20000 nM | 46.9 nM | – | c1ccc2[nH]c(CNc3nn(C4COC4)c4nc(C5CC5)cnc34)nc2c1 [Example 55, N-[(1H-benzimidazol-2-yl)methyl]-6-cyclopropyl-1-(oxetan-3-yl)-1H-pyrazolo[3,4-b]pyrazin-3-amine]
> 20000 nM | 2.17 nM | >9202 | CC(C)(O)CCn1nc(NCc2nc3ccccc3[nH]2)c2ncc(C3CC3)nc21 [Example 76, 4-(3-{[(1H-benzimidazol-2-yl)methyl]amino}-6-cyclopropyl-1H-pyrazolo[3,4-b]pyrazin-1-yl)-2-methylbutan-2-ol]
> 20000 nM | 14.4 nM | >1388 | CN1CCC(n2nc(NCc3nc4c(Cl)c(F)ccc4[nH]3)c3ncc(C4CC4)nc32)CC1 [Example 31, N-[(4-chloro-5-fluoro-1H-benzimidazol-2-yl)methyl]-6-cyclopropyl-1-(1-methylpiperidin-4-yl)-1H-pyrazolo[3,4-b]pyrazin-3-amine]
> 20000 nM | 21 nM | >937 | COC(C)(C)CCn1nc(NCc2nc3ccccc3[nH]2)c2ncc(C3CC3)nc21 [Example 67, N-[(1H-benzimidazol-2-yl)methyl]-6-cyclopropyl-1-(3-methoxy-3-methylbutyl)-1H-pyrazolo[3,4-b]pyrazin-3-amine]
> 20000 nM | 18.7 nM | >536 | OC1(Cn2nc(NCc3nc4ccccc4[nH]3)c3ncc(C4CC4)nc32)CCC1 [Example 72, 1-[(3-{[(1H-benzimidazol-2-yl)methyl]amino}-6-cyclopropyl-1H-pyrazolo[3,4-b]pyrazin-1-yl)methyl]cyclobutan-1-ol]
17900 nM | 12 nM | 1614 | COc1cccc2[nH]c(CNc3nn(C4CCOCC4)c4nc(C5CC5)cnc34)nc12 [Example 24, 6-cyclopropyl-N-[(4-methoxy-1H-benzimidazol-2-yl)methyl]-1-(oxan-4-yl)-1H-pyrazolo[3,4-b]pyrazin-3-amine]
> 20000 nM | 4.66 nM | >4294 | CN1CCC(n2nc(NCc3nc4cc(Cl)c(Cl)cc4[nH]3)c3ncc(C4CC4)nc32)CC1 [Example 19, 6-cyclopropyl-N-[(5,6-dichloro-1H-benzimidazol-2-yl)methyl]-1-(1-methylpiperidin-4-yl)-1H-pyrazolo[3,4-b]pyrazin-3-amine]
> 20000 nM | 14.4 nM | – | CN1CCC(n2nc(NCc3nc4c(C(F)(F)F)cccc4[nH]3)c3ncc(C4CC4)nc32)CC1 [Example 7, 6-cyclopropyl-1-(1-methylpiperidin-4-yl)-N-{[4-(trifluoromethyl)-1H-benzimidazol-2-yl]methyl}-1H-pyrazolo[3,4-b]pyrazin-3-amine]
> 20000 nM | 20.5 nM | – | COCCn1nc(NCc2nc3ccccc3[nH]2)c2ncc(C3CC3)nc21 [Example 65, N-[(1H-benzimidazol-2-yl)methyl]-6-cyclopropyl-1-(2-methoxyethyl)-1H-pyrazolo[3,4-b]pyrazin-3-amine]
> 20000 nM | 163 nM | >123 | COCCCn1nc(NCc2nc3ccccc3[nH]2)c2ncc(C3CC3)nc21 [Example 61, N-[(1H-benzimidazol-2-yl)methyl]-6-cyclopropyl-1-(3-methoxypropyl)-1H-pyrazolo[3,4-b]pyrazin-3-amine]
> 20000 nM | 11.5 nM | – | Fc1ccc2[nH]c(CNc3nn(C4CCOCC4)c4nc(C5CC5)cnc34)nc2c1F [Example 32, 6-cyclopropyl-N-[(4,5-difluoro-1H-benzimidazol-2-yl)methyl]-1-(oxan-4-yl)-1H-pyrazolo[3,4-b]pyrazin-3-amine]
> 20000 nM | 32 nM | – | Fc1ccc2[nH]c(CNc3nn(C4CCOCC4)c4nc(C5CC5)cnc34)nc2c1 [Example 53, 6-cyclopropyl-N-[(5-fluoro-1H-benzimidazol-2-yl)methyl]-1-(oxan-4-yl)-1H-pyrazolo[3,4-b]pyrazin-3-amine]
> 20000 nM | 41.2 nM | >102 | OCCCn1nc(NCc2nc3ccccc3[nH]2)c2ncc(C3CC3)nc21 [Example 60, 3-(3-{[(1H-benzimidazol-2-yl)methyl]amino}-6-cyclopropyl-1H-pyrazolo[3,4-b]pyrazin-1-yl)propan-1-ol]
> 20000 nM | 13.8 nM | – | OC[C@H]1C[C@H](n2nc(NCc3nc4ccccc4[nH]3)c3ncc(C4CC4)nc32)C1 [Example 46, [trans-3-(3-{[(1H-benzimidazol-2-yl)methyl]amino}-6-cyclopropyl-1H-pyrazolo[3,4-b]pyrazin-1-yl)cyclobutyl]methanol]
